# According to ChEMBL document CHEMBL6109128, “Copper-KRAS-COX2 Axis: A Therapeutic Vulnerability in Pancreatic Cancer” (J Med Chem, 2025):
# Calls of active or inactive are those of the source. The rule behind the calls is not given here.
# Tests used:
# [1] = tested on: MIA PaCa-2; assay: Cytotoxicity against human MIA PaCa-2 cells by MTT assay; format: functional, cell-based
# [2] = Metabolic stability in mouse liver microsome assessed as half life measured up to 60 mins by LC-MS/MS analysis; format: ADME; settings: liver microsomes
# [3] = Drug metabolism in mouse plasma assessed as 5-(5-((6-fluoroquinolin-8-yl)carbamoyl)pyrazin-2-yl)-2-methyl-2,5-diazabicyclo[2.2.1]heptane 2-oxide metabolite formation by measuring Retention time measured after 1 hr by LC-MS/MS analysis; format: ADME, cell-free
# [4] = Drug metabolism in mouse plasma assessed as retention time measured after 1 hr by LC-MS/MS analysis; format: ADME, cell-free
# [5] = Drug metabolism in mouse plasma assessed as 6-fluoro-8-isocyanatoquinoline metabolite formation by measuring Retention time measured after 1 hr by LC-MS/MS analysis; format: ADME, cell-free
# [6] = Drug metabolism in mouse plasma assessed as 6-fluoroquinolin-8-amine metabolite formation by measuring Retention time measured after 1 hr by LC-MS/MS analysis; format: ADME, cell-free
# [7] = Metabolic stability in human liver microsome assessed as half life measured up to 60 mins by LC-MS/MS analysis; format: ADME; settings: liver microsomes
# [8] = Drug metabolism in mouse plasma assessed as 5-(5-methyl-2,5-diazabicyclo[2.2.1]hept-3-en-2-yl)pyrazine-2-carbaldehyde metabolite formation by measuring Retention time measured after 1 hr by LC-MS/MS analysis; format: ADME, cell-free
# [9] = Drug metabolism in mouse plasma assessed as 5-(2,5-diazabicyclo[2.2.1]heptan-2-yl)-N-(6-fluoroquinolin-8-yl)pyrazine-2-carboxamide metabolite formation by measuring Retention time measured after 1 hr by LC-MS/MS analysis; format: ADME, cell-free
# [10] = tested on: Panc02; assay: Cytotoxicity against mouse Panc02 cells by MTT assay; format: functional, cell-based
# [11] = tested on: PANC-1; assay: Cytotoxicity against human PANC-1 cells by MTT assay; format: functional, cell-based
# [12] = tested on: SU.86.86; assay: Cytotoxicity against human SU-86-86 cells by MTT assay; format: functional, cell-based
# [13] = tested on: HCT-116; assay: Cytotoxicity against human HCT-116 cells assessed as cell death up to 1 uM incubated for 6 days in presence of NAC; format: functional, cell-based; settings: time 6.0 day
# [14] = tested on: BXPC-3; assay: Cytotoxicity against human BXPC-3 cells by MTT assay; format: functional, cell-based
# [15] = Cytotoxicity against mouse KPC2 cells by MTT assay; format: functional, cell-based
# [16] = Toxicity in C57BL/6 mouse assessed as body weight loss at 20 to 40 mg/kg, ip administered for 28 days; format: organism-based; settings: in vivo, 672 h, dose 20-40 mg/kg, time 28 day
# [17] = tested on: MIA PaCa-2; assay: Cytotoxicity against human MIA PaCa-2 cells assessed as cell death up to 0.1 uM incubated for 6 days in presence of NAC; format: functional, cell-based; settings: time 6.0 day
SMILES,IC50 [1] [µM],other results
C=CC(=O)N1CCN(c2cnc(C(=O)Nc3cc(C)cc4cccnc34)cn2)CC1,0.9,half-life [2]: 3 min
NC1CCCN(c2cnc(C(=O)Nc3cc(F)cc4cccnc34)cn2)C1 (configuration not stated),1.8,–
O=C(Nc1cc(F)cc2cccnc12)c1cnc(N2CC3CC2CN3)cn1 (configuration not stated),9.4,–
O=C(Nc1cc(F)cc2cccnc12)c1cnc(N2CCC(F)C2)cn1 (configuration not stated),2.8,–
CN1CC2CC1CN2c1cnc(C(=O)Nc2cc(F)cc3cccnc23)cn1 (configuration not stated),0.1,Retention_time [3]: 6.44 min; Retention_time [4]: 6.22 min; Retention_time [5]: 6.23 min; Retention_time [6]: 6.23 min; half-life [2]: 10.5 min; half-life [7]: > 60 min; Retention_time [8]: 6.19 min; Retention_time [9]: 6.22 min
N[C@H]1CN(c2cnc(C(=O)Nc3cc(F)cc4cccnc34)cn2)C[C@H]1F,0.3,half-life [2]: > 60 min; half-life [7]: > 60 min
CN1CCN(c2cnc(C(=O)Nc3cc(F)cc4cccnc34)cn2)CC1,0.7,–
CN1C2CCC1CN(c1cnc(C(=O)Nc3cc(F)cc4cccnc34)cn1)C2,0.4,half-life [2]: 13.5 min; half-life [7]: > 60 min
O=C(Nc1cc(F)cc2cccnc12)c1cnc(N2CCN3CCCC3C2)cn1 (configuration not stated),1.7,–
CN1CNC(=O)C12CCN(c1cnc(C(=O)Nc3cc(F)cc4cccnc34)cn1)CC2,2.9,–
NC1CCC2(CC1)CN(c1cnc(C(=O)Nc3cc(F)cc4cccnc34)cn1)C2,4.7,–
C[C@@H]1CNCCN1c1cnc(C(=O)Nc2cc(F)cc3cccnc23)cn1,0.4,–
O=C(Nc1cc(F)cc2cccnc12)c1cnc(N2CC3CC2CO3)cn1 (configuration not stated),0.9,–
N[C@@H]1CCCC12CCN(c1cnc(C(=O)Nc3cc(F)cc4cccnc34)cn1)CC2,1.5,–
Cc1cc(NCc2cnc(N3CCNCC3)cn2)c2ncccc2c1,17.6,–
Cc1cc(NC(=O)c2cnc(N3CCNCC3)cn2)c2ncccc2c1,0.9,half-life [2]: 4 min
CN(C)C/C=C/C(=O)N1CCN(c2cnc(C(=O)Nc3cc(F)cc4cccnc34)cn2)CC1,4.4,–
O=C(Nc1cc(F)cc2cccnc12)c1cnc(N2CCNCC2)cn1,0.4,half-life [2]: 1.8 min; half-life [7]: > 60 min
Cc1cc(NC(=O)c2cnc(N3CCN(C(=O)C4CC4)CC3)cn2)c2ncccc2c1,1.2,–
O=C(Nc1cc(F)cc2cccnc12)c1cnc(N2CCNC(F)C2)cn1 (configuration not stated),3.4,–
O=C(Nc1cc(F)cc2cccnc12)c1cnc(N2CCC(O)(C(F)(F)F)CC2)cn1,2.1,–
CCN(CC)C(=S)SSC(=S)N(CC)CC [DISULFIRAM],0.1,IC50 [10]: 0.1 µM; IC50 [11]: 0.1 µM; IC50 [12]: 0.3 µM; Activity [13]: Active; IC50 [14]: 0.3 µM; IC50 [15]: 0.2 µM
O=C(Nc1cc(F)cc2cccnc12)c1cnc(N2CCC(N3CCCC3)CC2)cn1,0.5,–
O=C(Nc1cc(F)cc2cccnc12)c1cnc(N2CC3CC2CS3(=O)=O)cn1 (configuration not stated),1.4,–
O=C(Nc1cc(F)cc2cccnc12)c1cnc(N2CCNC(C(F)(F)F)C2)cn1 (configuration not stated),0.8,–
O=C(Nc1cc(F)cc2cccnc12)c1cnc(N2C[C@@H](O)CC2=O)cn1,4.7,–
O=C(Nc1cc(F)cc2cccnc12)c1cnc(N2CCn3cnnc3C2)cn1,> 30,–

SMILES,IC50 [1] [µM],other results
O=C(Nc1cccc2ccccc12)c1cnc(N2CCNCC2)cn1,> 30,–
O=C(Nc1cc(F)cc2cccnc12)c1cnc(N2CCC(O)C2)cn1 (configuration not stated),1,–
Cc1cc(NC(=O)c2cnc(N3CCC4(CC3)CO[C@@H](C)[C@H]4N)cn2)c2ncccc2c1,1,half-life [2]: 11.7 min
NC1CC2(C1)CN(c1cnc(C(=O)Nc3cc(F)cc4cccnc34)cn1)C2,5.5,–
NC1C2CCC1CN(c1cnc(C(=O)Nc3cc(F)cc4cccnc34)cn1)C2 (configuration not stated),0.8,half-life [2]: > 60 min; half-life [7]: > 60 min; Activity [16]: Non-toxic
C[C@@H]1CN(c2cnc(C(=O)Nc3cc(F)cc4cccnc34)cn2)CCN1,0.5,–
N[C@@H]1CN(c2cnc(C(=O)Nc3cc(F)cc4cccnc34)cn2)CC12COC2,11.6,–
Cc1cc(NC(=O)c2ccc(N3CCN(C)CC3)cc2)c2ncccc2c1,25.8,–
NC1CC2(CCN(c3cnc(C(=O)Nc4cc(F)cc5cccnc45)cn3)CC2)C1,3,–
O=C(Nc1cc(F)cc2cccnc12)c1cnc(N2CCOCC2)cn1,1,–
Cc1cc(NC(=O)c2cnc(N3CCN(S(C)(=O)=O)CC3)cn2)c2ncccc2c1,1,–
O=C(Nc1cc(F)cc2cccnc12)c1cnc(N2CCC(F)(F)CC2)cn1,3.7,–
CC1(N)CN(c2cnc(C(=O)Nc3cc(F)cc4cccnc34)cn2)C1,2.1,–
Cc1cc(C(=O)Nc2ccc(N3CCN(C)CC3)nc2)c2ncccc2c1,21.5,–
CS(=O)(=O)N1CCN(c2cnc(C(=O)Nc3cc(F)cc4cccnc34)cn2)CC1,3.3,–
O=C(Nc1cc(F)cc2cccnc12)c1cnc(N2CCn3c(nnc3C(F)(F)F)C2)cn1,4.1,–
Cc1cc(NC(=O)c2cnc(N3C[C@@H]4[C@@H](N)[C@@H]4C3)cn2)c2ncccc2c1,0.5,half-life [2]: > 60 min
CC1(C)CN(c2cnc(C(=O)Nc3cc(F)cc4cccnc34)cn2)CCN1,0.3,–
CCN(CC)C1CCN(c2cnc(C(=O)Nc3cc(F)cc4cccnc34)cn2)CC1,0.5,–
C[C@@H]1CN(c2cnc(C(=O)Nc3cc(F)cc4cccnc34)cn2)C[C@H](C)N1,0.3,–
CC1CNCCCN1c1cnc(C(=O)Nc2cc(F)cc3cccnc23)cn1 (configuration not stated),1.1,–
N[C@@H]1CCN(c2cnc(C(=O)Nc3cc(F)cc4cccnc34)cn2)C[C@@H]1F,1.1,–
CN(NC(=O)CC(=O)NN(C)C(=S)c1ccccc1)C(=S)c1ccccc1 [ELESCLOMOL],0.02,IC50 [10]: 0.01 µM; IC50 [11]: 0.03 µM; Activity [17]: Active; IC50 [12]: 0.02 µM; IC50 [14]: 0.05 µM; IC50 [15]: 0.2 µM
O=C(Nc1cc(F)cc2cccnc12)c1cnc(N2CC3C(C2)C3(F)F)cn1 (configuration not stated),5.4,–
CN1CCN(c2cnc(C(=O)Nc3cccc4ccccc34)cn2)CC1,> 30,–
O=C(Nc1cc(F)cc2cccnc12)c1cnc(N2CCNC3(CC3)C2)cn1,0.8,–
Cc1cc(NC(=O)CNCCN2CCN(C)CC2)c2ncccc2c1,> 30,–
